#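 A five-concentration, 48-hour dose response in 96-well plates underlies each endpoint, interpolated linearly between surrounding concentrations. TGI denotes the concentration required for complete inhibition of growth.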
# Assays:
# Experiment in all cases: inhibition of tumour cell growth, NCI panel, 48 h
# NCI-H23 lung = system: NCI-H23 lung
# NCI/ADR-RES ovarian = system: NCI/ADR-RES ovarian
# EKVX NSCLC = system: EKVX NSCLC
# UACC-257 melanoma = system: UACC-257 melanoma
# DU-145 prostate = system: DU-145 prostate
# HCC-2998 colon = system: HCC-2998 colon
# UO-31 renal = system: UO-31 renal
# MDA-MB-231 breast = system: MDA-MB-231 breast
# A549 NSCLC = system: A549 NSCLC
# RPMI-8226 leukemia = system: RPMI-8226 leukemia
# MCF7 breast = system: MCF7 breast
# SR leukemia = system: SR leukemia
SMILES,TGI (NCI-H23 lung) [µM],TGI (NCI/ADR-RES ovarian) [µM],TGI (EKVX NSCLC) [µM],TGI (UACC-257 melanoma) [µM],TGI (DU-145 prostate) [µM],TGI (HCC-2998 colon) [µM],TGI (UO-31 renal) [µM],TGI (MDA-MB-231 breast) [µM],TGI (A549 NSCLC) [µM],TGI (RPMI-8226 leukemia) [µM],TGI (MCF7 breast) [µM],TGI (SR leukemia) [µM]
N#Cc1c2c(c(N)oc1=O)C(c1ccccc1)CC(=O)N2 (configuration not stated),> 100,> 100,> 100,> 100,> 100,> 100,> 100,> 100,> 100,> 100,> 100,–
CSC(=S)Nc1cccc(C)n1,> 100,> 100,> 100,> 100,> 100,> 100,> 100,> 100,> 100,> 100,> 100,> 100
Nc1ccc2c(c1)nc1n2C(c2c(F)cccc2F)SC1 (configuration not stated),> 100,> 100,> 100,> 100,> 100,> 100,> 100,> 100,> 100,> 100,> 100,> 100
N[C@H](C(=O)O)[C@@H]1CC(Br)=NO1,> 100,> 100,> 100,> 100,> 100,> 100,> 100,> 100,> 100,–,> 100,> 100
O=[N+]([O-])/C(C(Cl)=C(Cl)Cl)=C(/Cl)SCc1ccccc1,23,3.62,40.1,7.03,32.5,43.5,4.83,4.32,32.7,–,16,–
NC(=O)C(=CNC(=S)Nc1ccccc1)C(N)=O,> 100,> 100,> 100,> 100,> 100,> 100,–,> 100,> 100,> 100,> 100,> 100
COc1ccc2c(c1)c1c(n2CCN(C)C)-c2ccccc2CC1,31.9,31.5,24.4,30.3,29.4,32.2,26.4,27.2,29.5,45,35.1,–
O=C(NC1CCN(Cc2ccccc2)CC1)c1ccc(I)cc1,> 100,> 100,> 100,> 100,> 100,–,> 100,> 100,> 100,> 100,–,> 100
NC1CC(=O)c2c1sc(Cl)c2Cl (configuration not stated),–,> 100,> 100,> 100,> 100,> 100,> 100,> 100,> 100,> 100,> 100,> 100
O=C1Cc2c([nH]c3ccc(Br)cc23)-c2cc(O)c(O)cc2N1,> 100,> 100,> 100,> 100,> 100,> 100,> 100,> 100,> 100,> 100,> 100,–
Oc1ccc2cc(Br)ccc2c1-c1c(O)ccc2ccc(Br)cc12,29.1,27.7,–,33.9,29.2,19.5,28.8,21.6,30.4,–,28.8,52.4
COC(=O)c1ccc(S)c(S(=O)(=O)Nc2n[nH]c(N)n2)c1,> 100,> 100,> 100,> 100,> 100,–,> 100,> 100,> 100,> 100,–,> 100
CCCCc1ccc(-n2sc3ncc(C)cc3c2=O)cc1,> 100,72,46.9,–,> 100,> 100,20.2,44.5,78.9,99,34.3,> 100
COC(=O)c1cc2c(c3c1CC(Cc1ccccc1)C3=O)CCC2 (configuration not stated),> 100,> 100,> 100,> 100,> 100,> 100,–,> 100,> 100,> 100,> 100,> 100
CC(C)(C)C1=CC(C)(n2[nH]c(=O)n(-c3ccccc3)c2=O)C=C(C(C)(C)C)C1=O,> 100,> 100,–,> 100,> 100,> 100,> 100,> 100,> 100,> 100,> 100,–
O=C(c1cccs1)N(C(=S)OCCOc1ccccc1)c1ccccc1,42.3,57.7,78.8,69.9,> 100,59.4,–,61.9,> 100,53.9,44.6,–

SMILES,TGI (NCI-H23 lung) [µM],TGI (NCI/ADR-RES ovarian) [µM],TGI (EKVX NSCLC) [µM],TGI (UACC-257 melanoma) [µM],TGI (DU-145 prostate) [µM],TGI (HCC-2998 colon) [µM],TGI (UO-31 renal) [µM],TGI (MDA-MB-231 breast) [µM],TGI (A549 NSCLC) [µM],TGI (RPMI-8226 leukemia) [µM],TGI (MCF7 breast) [µM],TGI (SR leukemia) [µM]
Cc1ccc(NC(=O)c2cc(S(=O)(=O)Nc3n[nH]c(=O)[nH]3)c(SSc3cc(Cl)c(C(=O)Nc4ccc(C)cc4)cc3S(=O)(=O)Nc3n[nH]c(=O)[nH]3)cc2Cl)cc1,> 100,> 100,> 100,> 100,–,> 100,> 100,> 100,> 100,> 100,> 100,> 100
O=[N+]([O-])c1ccc(-c2nc3ccc(Cl)cc3[nH]2)cc1,> 100,> 100,> 100,> 100,> 100,–,> 100,> 100,> 100,> 100,> 100,> 100
COC(=O)C(CCSC)NC(=O)CNC(=O)CSc1nnc(COc2ccc(Cl)cc2)n1-c1ccccc1 (configuration not stated),30.2,> 100,–,32.2,55.8,27,22.1,29.4,> 100,59.7,39.6,–
CC1(C)CC[C@]2(C)CC[C@]3(C)C(=CC[C@@H]4[C@@]5(C)CCC(=O)C(C)(C)[C@@H]5[C@H](O)C[C@]43C)[C@@H]2C1,35.3,38.6,32.4,32.3,34.4,28.9,–,23.7,54.3,53.2,35.1,–
O=c1[nH]c(=S)nc2nc3c4ccc[nH]c4c4ccccc4c3nc12,> 100,–,> 100,> 100,> 100,> 100,> 100,–,> 100,> 100,> 100,> 100
CCOC(=O)C1(F)S(=O)(=O)OCCOS1(=O)=O,> 100,> 100,> 100,> 100,> 100,> 100,> 100,–,> 100,> 100,> 100,> 100
COc1ccc(/C=N/n2c(C)n[nH]c2=O)c(OC)c1,> 100,> 100,> 100,> 100,> 100,> 100,> 100,> 100,> 100,> 100,> 100,–
Cc1ccc2nc(N/N=C/c3sccc3C)cc(C)c2c1,> 100,> 100,> 100,> 100,> 100,> 100,> 100,62.2,> 100,–,> 100,–
NS(=O)(=O)c1nnc(NS(=O)(=O)C(F)(F)F)s1,> 100,> 100,> 100,–,> 100,> 100,> 100,> 100,> 100,> 100,> 100,> 100
CCCCCCCC1(N=[N+]=[N-])C(=O)Nc2ccccc2C1=O (configuration not stated),40.5,48.5,–,41.2,31.8,39.9,25.3,41.3,28,> 100,34.6,90
COc1cc(O)c2c(=O)c(O)c(-c3ccc(O)c(OC)c3)oc2c1,> 100,> 100,> 100,> 100,> 100,> 100,–,> 100,> 100,> 100,> 100,–
NNC(=O)c1c(-c2cccnc2)cnc2ccccc12,> 100,> 100,> 100,> 100,> 100,> 100,> 100,–,> 100,> 100,> 100,> 100
Oc1[nH]c2ccccc2c1N=NC(=S)Nc1ccccc1Cl,33.5,3.48,77.9,15.5,58.5,> 100,81.6,32,23.8,–,33.4,1.16
CC(C)=CCN1CC(C)C(=O)Nc2ccccc21 (configuration not stated),> 100,–,> 100,> 100,> 100,> 100,> 100,> 100,> 100,> 100,> 100,> 100
O=C1C(Cl)C2(CC(/C=C/c3ccccc3)=NN2c2cccc(S(=O)(=O)O)c2)N1c1nc2ccccc2s1 (configuration not stated),28.1,> 100,41,54.4,–,27.8,16.1,29.4,30.2,33.8,36.6,30
